# Where a name gives a salt, the structure may show the parent alone.
# Experiments:
# FAAH = target: T1, FAAH (Homo sapiens, UniProt O00519); test: Assay Method 1: FAAH assay, 3H-anandamide hydrolysis in homogenate of T84 cells or SK-N-MC cells transfected with human FAAH; assay type: biochemical; conditions: average of results, > = solubility limit or highest concentration tested
# T1 sequence (O00519 1-579): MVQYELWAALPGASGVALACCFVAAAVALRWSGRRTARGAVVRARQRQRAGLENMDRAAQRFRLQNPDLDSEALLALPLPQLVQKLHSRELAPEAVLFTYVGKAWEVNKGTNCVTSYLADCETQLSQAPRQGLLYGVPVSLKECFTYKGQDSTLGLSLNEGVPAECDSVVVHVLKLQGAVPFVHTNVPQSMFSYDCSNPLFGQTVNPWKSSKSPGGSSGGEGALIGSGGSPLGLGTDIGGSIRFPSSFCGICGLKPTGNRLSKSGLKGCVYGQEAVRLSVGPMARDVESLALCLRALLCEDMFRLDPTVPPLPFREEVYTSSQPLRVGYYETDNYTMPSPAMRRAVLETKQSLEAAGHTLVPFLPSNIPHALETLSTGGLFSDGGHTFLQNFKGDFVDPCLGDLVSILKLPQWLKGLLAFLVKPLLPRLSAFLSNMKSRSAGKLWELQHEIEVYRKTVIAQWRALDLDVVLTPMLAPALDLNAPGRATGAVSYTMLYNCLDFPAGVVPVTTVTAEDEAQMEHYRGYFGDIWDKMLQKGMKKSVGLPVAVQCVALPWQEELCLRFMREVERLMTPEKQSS
# Description: A. Transfection of Cells with Human FAAH
# (§1) A 10-cm tissue culture dish with a confluent monolayer of SK—N-MC cells was split 2 days (d) prior to transfection. Using sterile technique, the media was removed and the cells were detached from the dish by the addition of trypsin. One fifth of the cells were then placed onto a new 10-cm dish. Cells were grown in a 37° C. incubator with 5% CO2 in Minimal Essential Media Eagle with 10% Fetal Bovine Serum. After 2 d, cells were approximately 80% confluent. These cells were removed from the dish with trypsin and pelleted in a clinical centrifuge. The pellet was re-suspended in 400 μL complete media and transferred to an electroporation cuvette with a 0.4 cm gap between the electrodes. Supercoiled human FAAH cDNA (1 μg) was added to the cells and mixed. The voltage for the electroporation was set at 0.25 kV, and the capacitance was set at 960 μF. After electroporation, the cells were diluted into complete media (10 mL) and plated onto four 10-cm dishes. Because of the variability in the efficiency of electroporation, four different concentrations of cells were plated. The ratios used were 1:20, 1:10, and 1:5, with the remainder of the cells being added to the fourth dish. The cells were allowed to recover for 24 h before adding the selection media (complete media with 600 μg/mL G418). After 10 d, dishes were analyzed for surviving colonies of cells. Dishes with well-isolated colonies were used. Cells from individual colonies were isolated and tested.
# (§2) T84 frozen cell pellets or transfected SK—N-MC cells (contents of 1×15 cm culture dishes) were homogenized in 50 mL of FAAH assay buffer (125 mM Tris, 1 mM EDTA, 0.2% Glycerol, 0.02% Triton X-100, 0.4 mM Hepes, pH 9). The assay mixture consisted of 50 μL of the cell homogenate, 10 μL of the test compound, and 40 μL of anandamide [1-^3H-ethanolamine] (^3H-AEA, Perkin-Elmer, 10.3 Ci/mmol), which was added last, for a final tracer concentration of 80 nM. The reaction mixture was incubated at rt for 1 h. During the incubation, 96-well Multiscreen filter plates (catalog number MAFCNOB50; Millipore, Bedford, Mass., USA) were loaded with 25 μL of activated charcoal (Multiscreen column loader, catalog number MACL09625, Millipore) and washed once with 100 μL of MeOH. Also during the incubation, 96-well DYNEX MicroLite plates (catalog number NL510410) were loaded with 100 μL of MicroScint40 (catalog number 6013641, Packard Bioscience, Meriden, Conn., USA). After the 1 h incubation, 60 μL of the reaction mixture were transferred to the charcoal plates, which were then assembled on top of the DYNEX plates using Centrifuge Alignment Frames (catalog number MACF09604, Millipore). The unbound labeled ethanolamine was centrifuged through to the bottom plate (5 min at 2000 rpm), which was preloaded with the scintillant, as described above. The plates were sealed and left at rt for 1 h before counting on a Hewlett Packard TopCount.
# (§3) Compounds were tested in free base, hydrochloride salt, and/or trifluoroacetic acid salt forms.
# rat FAAH = target: T2, rat FAAH (Rattus norvegicus, UniProt P97612); test: Assay Method 2: FAAH assay, 3H-anandamide hydrolysis in homogenate of SK-N-MC cells transfected with rat FAAH; assay type: biochemical; conditions: average of results, > = solubility limit or highest concentration tested
# T2 sequence (P97612 1-579): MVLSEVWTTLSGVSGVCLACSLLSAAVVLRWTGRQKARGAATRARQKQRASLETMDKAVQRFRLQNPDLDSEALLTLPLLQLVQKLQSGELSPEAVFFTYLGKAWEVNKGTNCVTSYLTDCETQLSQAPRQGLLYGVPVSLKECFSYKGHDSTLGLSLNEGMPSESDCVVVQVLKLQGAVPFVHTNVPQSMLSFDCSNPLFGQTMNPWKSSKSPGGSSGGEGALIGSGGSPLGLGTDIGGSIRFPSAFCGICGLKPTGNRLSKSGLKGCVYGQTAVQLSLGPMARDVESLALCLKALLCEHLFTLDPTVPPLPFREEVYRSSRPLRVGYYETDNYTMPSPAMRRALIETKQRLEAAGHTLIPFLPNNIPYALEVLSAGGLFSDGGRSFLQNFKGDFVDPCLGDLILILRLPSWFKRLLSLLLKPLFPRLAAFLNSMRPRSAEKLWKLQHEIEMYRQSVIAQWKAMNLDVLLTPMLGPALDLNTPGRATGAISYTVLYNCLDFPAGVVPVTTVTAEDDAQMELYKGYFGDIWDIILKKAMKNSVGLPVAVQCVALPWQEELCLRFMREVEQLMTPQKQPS
# Description: A. Transfection of Cells with Rat FAAH
# as §1, with “rat” for “human”
# as §2, §3
Compound,IC50 (FAAH) [nM],IC50 (rat FAAH) [nM]
"O=C(Nc1ccc2nn[nH]c2c1)N1CCN(Cc2ccc3c(c2)OC(F)(F)O3)CC1 [Example 6, 4-(2,2-Difluoro-benzo[1,3]dioxol-5-ylmethyl)-piperazine-1-carboxylic acid (3H-benzotriazol-5-yl)-amide trifluoroacetic acid salt]",308,352
"O=C(Nc1cccs1)N1CCN(Cc2ccc3c(c2)OC(F)(F)O3)CC1 [Example 7, 4-(2,2-Difluoro-benzo[1,3]dioxol-5-ylmethyl)-piperazine-1-carboxylic acid thiophen-2-ylamide]",2000,2400
"O=C(Nc1ccsc1)N1CCN(Cc2ccc3c(c2)OC(F)(F)O3)CC1 [Example 8, 4-(2,2-Difluoro-benzo[1,3]dioxol-5-ylmethyl)-piperazine-1-carboxylic acid thiophen-3-ylamide]",770,290
"O=C(Nc1ccc(Cl)nn1)N1CCC(Cc2ccc3ccccc3c2)CC1 [Example 9, 4-Naphthalen-2-ylmethyl-piperidine-1-carboxylic acid (6-chloro-pyridazin-3-yl)-amide]",552,57
"O=C(Nc1cnccn1)N1CCC(Cc2ccc3ccccc3c2)CC1 [Example 10, 4-Naphthalen-2-ylmethyl-piperidine-1-carboxylic acid pyrazin-2-ylamide trifluoroacetic acid salt]",244,36
"O=C(Nc1ccon1)N1CCC(Cc2ccc3ccccc3c2)CC1 [Example 11, 4-Naphthalen-2-ylmethyl-piperidine-1-carboxylic acid isoxazol-3-ylamide]",1000,170
"O=C(Nc1nc(-c2ccccc2)ns1)N1CCC(Cc2ccc3ccccc3c2)CC1 [Example 12, 4-Naphthalen-2-ylmethyl-piperidine-1-carboxylic acid (3-phenyl-[1,2,4]thiadiazol-5-yl)-amide]",5000,3000
"O=C(Nc1ccn[nH]1)N1CCC(Cc2ccc3ccccc3c2)CC1 [Example 14, 4-Naphthalen-2-ylmethyl-piperidine-1-carboxylic acid (2H-pyrazol-3-yl)-amide]",218,63
"O=C(Nc1ccc2ccccc2n1)N1CCC(Cc2ccc3ccccc3c2)CC1 [Example 18, 4-Naphthalen-2-ylmethyl-piperidine-1-carboxylic acid quinolin-2-ylamide trifluoroacetic acid salt]",> 10000,9000
"O=C(Nc1ccc2ncsc2c1)N1CCC(Cc2ccc3ccccc3c2)CC1 [Example 19, 4-Naphthalen-2-ylmethyl-piperidine-1-carboxylic acid benzothiazol-6-ylamide]",1500,55

# The next compounds have a lower IC50 (FAAH) than those just listed; values first:
IC50 (FAAH) [nM],IC50 (rat FAAH) [nM],Compound
170,1200,"O=C(Nc1cccc2nonc12)N1CCN(Cc2ccc3c(c2)OC(F)(F)O3)CC1 [Example 5, 4-(2,2-Difluoro-benzo[1,3]dioxol-5-ylmethyl)-piperazine-1-carboxylic acid benzo[1,2,5]oxadiazol-4-ylamide trifluoroacetic acid salt]"
5,87,"O=C(Nc1nnn[nH]1)N1CCC(Cc2ccc3ccccc3c2)CC1 [Example 13, 4-Naphthalen-2-ylmethyl-piperidine-1-carboxylic acid (1H-tetrazol-5-yl)-amide]"
59,23,"O=C(Nc1cccc2nonc12)N1CCC(Cc2ccc3ccccc3c2)CC1 [Example 15, 4-Naphthalen-2-ylmethyl-piperidine-1-carboxylic acid benzo[1,2,5]oxadiazol-4-ylamide]"
39,5,"O=C(Nc1ccc2[nH]nnc2c1)N1CCC(Cc2ccc3ccccc3c2)CC1 [Example 16, 4-Naphthalen-2-ylmethyl-piperidine-1-carboxylic acid (1H-benzotriazol-5-yl)-amide]"

# From US20090062294A1, “HETEROARYL-SUBSTITUTED UREA MODULATORS OF FATTY ACID AMIDE HYDROLASE” (priority 2007, published 2009)
